US9718809B2, “Bisarylsulfonamides useful in the treatment of inflammation and cancer” (Kancera AB, priority 2011, dated 2017)
Structures can show the parent of a compound that is named as a salt.

system: SW480 cells; assay: Inhibition of cancer cell proliferation, total cellular protein (Sulphorhodamine B), SW480; settings: Homo sapiens, 72 h, read-out: IC50 based on quantitation of total cellular protein after treatment
Description: (§1) To assess the antiproliferative response elicited by the compounds of the present invention in different tumour cell lines, total cellular protein in samples was quantified using the Sulphorhodamine B kit, TOX6, (Sigma-Aldrich). The protocol is based on quantitation of total cellular protein after indicated treatments and incubation times using the Sulphorhodamine B kit, TOX6, (Sigma-Aldrich).
(§2) Briefly, after protein precipitation using TCA according to the manufacturer's instructions, the sulphorhodamine dye (80 μL/well) was added to the air-dried wells. After 20 min incubation at room temperature, the dye was discarded and the samples were gently rinsed with 1% HOAc until clear. After air drying, bound dye was solubilised in 200 μL 10 mM Tris base, and the absorbance of dye was measured at 565 nm. To quantify growth, samples were collected also at t=0 h, and the resulting absorbance was set to 100%.
(§3) For experiments studying the effect of the herein described compounds per se, i.e. without combination treatment with cisplatin, the above protocol was applied with the following modifications. See Table II for details for each specific cell line. Briefly, cells were plated at a density of 6,000 cells/well 96-well Corning Costar tissue culture plates (CLS3596, Sigma-Aldrich) in assay medium and allowed to attach over night at 37° C., 5% CO2. Day 2 the compounds were diluted ½ in dose response curve mode in 100% DMSO, required volume was transferred to assay medium to a maximal DMSO concentration of 0.1%. The diluted compounds were added to the cells with a starting dose response concentration of 100 μM. All compounds were tested in duplicate plates.
After protein precipitation using TCA according to the manufacturer's instructions, the sulforhodamine B dye (50 μL/well) was added to the air-dried wells. […] After air drying, bound dye was solubilised in 100 μL 10 mM Tris base, and the absorbance of dye was measured at 530 nm and a background absorbance (subtract from the measurement at 530 nm) at 690 nm. To quantify growth, samples were collected also at t=0 h.

IC50 [µM]	Compound
15.9	COCCOC(=O)c1ccc(NS(=O)(=O)c2cccc(-c3cc(F)ccc3F)c2)cc1O [Example 172, 2-Methoxyethyl 4-{[(2′,5′-difluorobiphenyl-3-yl)sulfonyl]amino}-2-hydroxybenzoate]
22.3	COCC(C)OC(=O)c1ccc(NS(=O)(=O)c2cc(Cl)cc(Cl)c2)cc1O (centres unmarked) [Example 192, 2-Methoxy-1-methylethyl 4-{[(3,5-dichlorophenyl)sulfonyl]amino}-2-hydroxybenzoate]
20.4	CCC(COC)OC(=O)c1ccc(NS(=O)(=O)c2cc(Cl)c(Cl)s2)cc1O (centres unmarked) [Example 195, 1-(Methoxymethyl)propyl 4-{[(4,5-dichlorothiophen-2-yl)sulfonyl]amino}-2-hydroxybenzoate]

system: NUGC-3 cells; assay: Inhibition of cancer cell proliferation, total cellular protein (Sulphorhodamine B), NUGC-3; settings: Homo sapiens, 72 h, read-out: IC50 based on quantitation of total cellular protein after treatment
Description: as §1, §2, §3
(§4) After protein precipitation using TCA according to the manufacturer's instructions, the sulforhodamine B dye (50 μL/well) was added to the air-dried wells. After 20 min incubation at room temperature, the dye was discarded and the samples were gently rinsed with 1% HOAc until clear. After air drying, bound dye was solubilised in 100 μL 10 mM Tris base, and the absorbance of dye was measured at 530 nm and a background absorbance (subtract from the measurement at 530 nm) at 690 nm. To quantify growth, samples were collected also at t=0 h.

IC50 [µM]	Compound
22.5	COC(=O)c1ccc(NS(=O)(=O)c2cc(-c3cc(F)ccc3F)c(Cl)s2)cc1O [Example 45, Methyl 4-({[5-chloro-4-(2,5-difluorophenyl)-2-thienyl]sulfonyl}amino)-2-hydroxybenzoate]
13	COC(=O)c1ccc(NS(=O)(=O)c2cccc(-c3cc(F)ccc3O)c2)cc1O [Example 134, Methyl 4-{[(5′-fluoro-2′-hydroxybiphenyl-3-yl)sulfonyl]amino}-2-hydroxybenzoate]
16.4	CCC(COC)OC(=O)c1ccc(NS(=O)(=O)c2cc(Cl)cc(Cl)c2)cc1O (centres unmarked) [Example 189, 1-(Methoxymethyl)propyl 4-{[(3,5-dichlorophenyl)sulfonyl]amino}-2-hydroxybenzoate]
6.8	O=C(OCCOc1ccccc1)c1ccc(NS(=O)(=O)c2cccc(-c3cc(F)ccc3O)c2)cc1O [Example 203, 2-Phenoxyethyl 4-{[(5′-fluoro-2′-hydroxybiphenyl-3-yl)sulfonyl]amino}-2-hydroxybenzoate]

system: F-2,6-P2 in SW620 cells; assay: Quantification of F-2,6-P2 (Van Schaftingen coupled enzyme assay) in SW620 cells; format: cell-based; settings: Homo sapiens, SW-620, read-out: IC50 based on quantification of F-2,6-P2
Text: A method for quantification of F-2,6-P2 has been described by Van Schaftingen et al. (1982) Eur. J. Biochem. 129, 191-5. This sensitive assay is based on the potent activation of pyrophosphate dependent phosphofructokinase-1 (PPi-PFK) from potato tubers by F-2,6-P2. The use of a series of coupled enzymes leads to a consumption of NADH (nicotinamide adenine dinucleotide) that can be followed spectrophotometrically (an updated protocol is available in Van Schaftingen, (1984) Methods of Enzymatic Analysis (Bergmeyer, H. U., ed.), 3rd edn., vol. 6, pp. 335-341, Verlag Chemie, Weinheim). A protocol for measurements in 96-well microtiter plate format is also available (Bruni et al., (1989) Anal. Biochem. 178, 324-6).
The levels of F-2,6-P2 have been determined using the van Shaftingen assay as described in the protocol below, in six different cancer cell lines endogenously expressing varying levels of the different isoforms of PFK-2/BPase-2 (MCF-7, PANC-1, NUGC-3, SW480, SW620 and MIA PaCa-2). All reagents were purchased from commercial sources or prepared in-house.
Cell line E (SW620, human colorectal adenocarcinoma): SW620 cells (ATCC-CCL-227), lot. no. 58483168. Cells were seeded at a concentration of ˜350 000 cells/mL in 100 μL growth medium (˜35 000 cells/well).
Growth medium (cell lines B-F): Dulbecco's Modified Eagle's Medium, DMEM, VWR, LONZ12-604F; 10% FBS, Invitrogen, 10270-106. […]

IC50 [µM]	Compound
2.8	COC(=O)c1ccc(NS(=O)(=O)c2cc(-c3ccccc3O)c(Cl)s2)cc1O [Example 156, Methyl 4-({[5-chloro-4-(2-hydroxyphenyl)-2-thienyl]sulfonyl}amino)-2-hydroxybenzoate]
0.8	COCC(C)OC(=O)c1ccc(NS(=O)(=O)c2cc(Cl)c(Cl)s2)cc1O (centres unmarked) [Example 194, 2-Methoxy-1-methylethyl 4-{[(4,5-dichlorothiophen-2-yl)sulfonyl]amino}-2-hydroxybenzoate]

system: PANC-1 cells; assay: Inhibition of cancer cell proliferation, total cellular protein (Sulphorhodamine B), PANC-1; settings: Homo sapiens, 72 h, read-out: IC50 based on quantitation of total cellular protein after treatment
Description: as §1, §2, §3, §4

IC50 [µM]	Compound
15.6	CC(C)OC(=O)c1ccc(NS(=O)(=O)c2cc(Cl)c(Cl)s2)cc1O [Example 68, Isopropyl 4-{[(4,5-dichloro-2-thienyl)sulfonyl]amino}-2-hydroxybenzoate]
16.1	COC(=O)c1ccc(NS(=O)(=O)c2cc(-c3ccccc3O)c(Cl)s2)cc1O [Example 156, Methyl 4-({[5-chloro-4-(2-hydroxyphenyl)-2-thienyl]sulfonyl}amino)-2-hydroxybenzoate]
30.2	O=C(OCCCN1CCOCC1)c1ccc(NS(=O)(=O)c2cc(-c3ccc4c(c3)CCO4)c(Cl)s2)cc1O [Example 163, 3-Morpholin-4-ylpropyl 4-({[5-chloro-4-(2,3-dihydro-1-benzofuran-5-yl)-2-thienyl]sulfonyl}amino)-2-hydroxybenzoate trifluoroacetate]
20.6	O=C(OCCCN1CCOCC1)c1ccc(NS(=O)(=O)c2c(Cl)sc(Cl)c2Br)cc1O [Example 199, 3-Morpholin-4-ylpropyl 4-{[(4-bromo-2,5-dichlorothiophen-3-yl)sulfonyl]amino}-2-hydroxybenzoate trifluoroacetate]

system: not listed separately; assay: Cell toxicity, CellTiter-Blue Cell Viability Assay; settings: human, MIA PaCa-2 pancreatic carcinoma cells, MIA PaCa-2 cells, 72 h culture, read-out: IC50 based on cell toxicity
Description: The CellTiter-Blue® Cell Viability Assay provides a homogeneous, fluorometric method for estimating the number of viable cells present in multi-well plates. It uses the indicator dye resazurin to measure the metabolic capacity of cells. Viable cells retain the ability to reduce resazurin into resorufin, which is highly fluorescent.
Stock solutions (10 or 100 mM in DMSO) of compounds were serially diluted 1:2 in 11 concentrations. 25 nL/well (100 mM stock) or 50 nL/well (10 mM stock) were acoustically dispensed in assay plates with EDC acoustic dispenser. Final starting conc. in assay was 20 μM (0.2% DMSO) or 100 μM (0.1% DMSO) for test compounds.
Cells (MIA-PaCa-2; pancreatic carcinoma) were seeded in assay plates (384-well black/clear, Greiner #781091) pre-dispensed with compounds, 25 μL/well, and cultured for 72 h. The cell concentration was 750 cells/well. After 72 h culture, Celltiter Blue reagent was added (5 μL/well) and the plates were incubated for 2 h. The plates were read in an Envision fluorescence reader with Ex544 nm/Em590 nm. Results were calculated as % cytotoxicity compared to background (cells treated with 0.2% DMSO).

Compound	IC50 at 72 h [µM]
O=C(OCC1CCOC1)c1ccc(NS(=O)(=O)c2cc(Cl)c(Cl)s2)cc1O (centres unmarked) [Example 75, Tetrahydrofuran-3-ylmethyl 4-{[(4,5-dichloro-2-thienyl)sulfonyl]amino}-2-hydroxybenzoate]	25.3
O=C(OCCCN1CCOCC1)c1ccc(NS(=O)(=O)c2cccc(-c3cc(F)ccc3O)c2)cc1O [Example 160, 3-Morpholin-4-ylpropyl 4-{[(5′-fluoro-2′-hydroxybiphenyl-3-yl)sulfonyl]amino}-2-hydroxybenzoate trifluoroacetate]	3.6
CCC(COC(=O)c1ccc(NS(=O)(=O)c2cccc(-c3cc(F)ccc3O)c2)cc1O)OC (centres unmarked) [Example 182, 2-Methoxybutyl 4-{[(5′-fluoro-2′-hydroxybiphenyl-3-yl)sulfonyl]amino}-2-hydroxybenzoate]	6.3
CC(C)(C)OC(=O)N1CCC(OC(=O)c2ccc(NS(=O)(=O)c3c(Cl)sc(Cl)c3Cl)cc2O)C1 (centres unmarked) [Example 205, tert-Butyl 3-[(2-hydroxy-4-{[(2,4,5-trichloro-3-thienyl)sulfonyl]amino}benzoyl)oxy]pyrrolidine-1-carboxylate]	17.7
